Experimental findings from ChEMBL document CHEMBL5724914, “Linking interpersonal differences in gut microbiota composition and drug biotransformation activity” (2024) are described below.

Series [1] in a line: The drug is tested on Z-008 corresponding to metagenome with ENA study accession number: PRJEB37062 and ENA sample accession number: ERS12561808 for biotransformation under anaerobic condition. The drug concentrations were measured over 9 timepoints collected between 0 and 24 hours of incubation by liquid-chromatography-coupled mass spectrometry (LC–MS). The conditions noted are these: 2 µM.

Series [2] is described as follows: The drug is tested on WLS-007 corresponding to human gut metagenome with ENA study accession number: PRJEB37062 and ENA sample accession number: ERS12561742 for biotransformation under anaerobic condition. The drug concentrations were measured over 9 timepoints collected between 0 and 24 hours of incubation by liquid-chromatography-coupled mass spectrometry (LC–MS). The conditions noted are these: 2 µM.

The conditions of series [3]: human gut metagenome, 24 h, 2 µM.
For series [4] the following is noted: human gut metagenome, 24 h, 2 µM. This is another data set of the same source.
A short description of series [5]: The drug is tested on WLS-370 corresponding to human gut metagenome with ENA study accession number: PRJEB37062 and ENA sample accession number: ERS12561793 for biotransformation under anaerobic condition. The drug concentrations were measured over 9 timepoints collected between 0 and 24 hours of incubation by liquid-chromatography-coupled mass spectrometry (LC–MS). The conditions noted are these: 2 µM.

Series [6] is described as follows: The drug is tested on WLS-090 corresponding to human gut metagenome with ENA study accession number: PRJEB37062 and ENA sample accession number: ERS12561753 for biotransformation under anaerobic condition. The drug concentrations were measured over 9 timepoints collected between 0 and 24 hours of incubation by liquid-chromatography-coupled mass spectrometry (LC–MS). The conditions noted are these: 2 µM.

The conditions of series [7]: human gut metagenome, 24 h, 2 µM. This is another data set of the same source.
A short description of series [8]: The drug is tested on Z-013 corresponding to rabbit gut metagenome with ENA study accession number: PRJEB37062 and ENA sample accession number: ERS12561813 for biotransformation under anaerobic condition. The drug concentrations were measured over 9 timepoints collected between 0 and 24 hours of incubation by liquid-chromatography-coupled mass spectrometry (LC–MS). The conditions noted are these: 2 µM.

The nature of series [9]: The drug is tested on WLS-069 corresponding to human gut metagenome with ENA study accession number: PRJEB37062 and ENA sample accession number: ERS12561748 for biotransformation under anaerobic condition. The drug concentrations were measured over 9 timepoints collected between 0 and 24 hours of incubation by liquid-chromatography-coupled mass spectrometry (LC–MS). The conditions noted are these: 2 µM.

The conditions of series [10]: human gut metagenome, 24 h, 2 µM. This is another data set of the same source.
A short description of series [11]: The drug is tested on WLS-010 corresponding to human gut metagenome with ENA study accession number: PRJEB37062 and ENA sample accession number: ERS12561743 for biotransformation under anaerobic condition. The drug concentrations were measured over 9 timepoints collected between 0 and 24 hours of incubation by liquid-chromatography-coupled mass spectrometry (LC–MS). The conditions noted are these: 2 µM.

For series [12] the following is noted: human gut metagenome, 24 h, 2 µM. The source holds these as a separate data set.
Series [13] in a line: The drug is tested on WLS-082 corresponding to human gut metagenome with ENA study accession number: PRJEB37062 and ENA sample accession number: ERS12561751 for biotransformation under anaerobic condition. The drug concentrations were measured over 9 timepoints collected between 0 and 24 hours of incubation by liquid-chromatography-coupled mass spectrometry (LC–MS). The conditions noted are these: 2 µM.

The conditions of series [14]: human gut metagenome, 24 h, 2 µM. The source holds these as a separate data set.
The nature of series [15]: The drug is tested on WLS-027 corresponding to human gut metagenome with ENA study accession number: PRJEB37062 and ENA sample accession number: ERS12561744 for biotransformation under anaerobic condition. The drug concentrations were measured over 9 timepoints collected between 0 and 24 hours of incubation by liquid-chromatography-coupled mass spectrometry (LC–MS). The conditions noted are these: 2 µM.

The conditions of series [16]: human gut metagenome, 24 h, 2 µM. The source holds these as a separate data set.
The conditions of series [17]: human gut metagenome, 24 h, 2 µM. The source holds these as a separate data set.
Series [18] in a line: The drug is tested on Z-014 corresponding to rat gut metagenome with ENA study accession number: PRJEB37062 and ENA sample accession number: ERS12561814 for biotransformation under anaerobic condition. The drug concentrations were measured over 9 timepoints collected between 0 and 24 hours of incubation by liquid-chromatography-coupled mass spectrometry (LC–MS). The conditions noted are these: 2 µM.

Series [19] is described as follows: The drug is tested on Z-025 corresponding to rabbit gut metagenome with ENA study accession number: PRJEB37062 and ENA sample accession number: ERS12561824 for biotransformation under anaerobic condition. The drug concentrations were measured over 9 timepoints collected between 0 and 24 hours of incubation by liquid-chromatography-coupled mass spectrometry (LC–MS). The conditions noted are these: 2 µM.

Series [20] in a line: The drug is tested on Z-030 corresponding to mouse gut metagenome with ENA study accession number: PRJEB37062 and ENA sample accession number: ERS12561829 for biotransformation under anaerobic condition. The drug concentrations were measured over 9 timepoints collected between 0 and 24 hours of incubation by liquid-chromatography-coupled mass spectrometry (LC–MS). The conditions noted are these: 2 µM.
Further: call rule not given here.

For `CCOC(=O)[C@H](CCc1ccccc1)N[C@@H](C)C(=O)N1[C@H](C(=O)O)C[C@H]2CCCC[C@@H]21` [TRANDOLAPRIL], the “Bacterial Biotransformation” value in series [1] is reported as “Compound NOT metabolized”; in [2], “Compound metabolized”; in [3], “Compound metabolized”; in series [4] it was “Compound NOT metabolized”; in [5], “Compound NOT metabolized”; in series [6], “Compound metabolized”. Also, the “Bacterial Biotransformation” value in series [7] is “Compound metabolized”; in series [8], “Compound NOT metabolized”; in series [9], “Compound metabolized”; in series [10], “Compound metabolized”; in [11], “Compound metabolized”; in series [12] it was “Compound NOT metabolized”. Moreover, the “Bacterial Biotransformation” value was “Compound metabolized” in series [13]; “Compound metabolized” in series [14]; “Compound metabolized” in [15]; “Compound metabolized” in [16]; “Compound NOT metabolized” in [17]; “Compound NOT metabolized” in series [18]. The “Bacterial Biotransformation” value in series [19] and in series [20] was “Compound NOT metabolized” in each case.
For `CC(CN(C)C)CN1c2ccccc2CCc2ccccc21.O=C(O)/C=C\C(=O)O` (stereo not given) [TRIMIPRAMINE MALEATE], the “Bacterial Biotransformation” value in [1] is given as “Compound NOT metabolized”; in series [2] it was “Compound metabolized”; in series [3], “Compound metabolized”; in series [4] it was “Compound metabolized”; in [5], “Compound NOT metabolized”; in series [6] it was “Compound metabolized”. Further, the “Bacterial Biotransformation” value is “Compound metabolized” in [7]; “Compound NOT metabolized” in series [8]; “Compound metabolized” in [9]; “Compound NOT metabolized” in [10]; “Compound metabolized” in [11]; “Compound metabolized” in series [12]. The “Bacterial Biotransformation” value in [13] is on record as “Compound metabolized”; in series [14] it was “Compound metabolized”; in series [15] it was “Compound metabolized”; in [16], “Compound metabolized”; in series [17] it was “Compound metabolized”; in series [18] it was “Compound NOT metabolized”. The “Bacterial Biotransformation” value in series [19] and in series [20] was “Compound NOT metabolized” in each case.
Regarding `CC(=O)CC(c1ccccc1)c1c(O)c2ccccc2oc1=O` (stereo not given) [WARFARIN], the “Bacterial Biotransformation” value in series [1] is “Compound NOT metabolized”; in [2], “Compound metabolized”; in [3] it was “Compound metabolized”; in series [4], “Compound metabolized”; in series [5] it was “Compound metabolized”; in series [6] it was “Compound metabolized”. Moreover, the “Bacterial Biotransformation” value in series [7], in series [8], in series [9], in series [10], in series [11] and in [12] was “Compound metabolized” each time. Besides, the “Bacterial Biotransformation” value in series [13], in [14], in [15], in series [16], in [17] and in series [18] was “Compound metabolized” in each case. Further, the “Bacterial Biotransformation” value in series [19] is reported as “Compound metabolized”; in series [20], “Compound NOT metabolized”.
As for `Cc1ccc(-c2nc3ccc(C)cn3c2CC(=O)N(C)C)cc1` [ZOLPIDEM], the “Bacterial Biotransformation” value in series [1] is given as “Compound NOT metabolized”; in series [2], “Compound NOT metabolized”; in [3], “Compound metabolized”; in series [4], “Compound metabolized”; in series [5] it was “Compound NOT metabolized”; in series [6], “Compound metabolized”. For the same compound, the “Bacterial Biotransformation” value in [7] was “Compound metabolized”; in [8], “Compound NOT metabolized”; in [9] it was “Compound NOT metabolized”; in series [10], “Compound metabolized”; in [11], “Compound NOT metabolized”; in series [12], “Compound NOT metabolized”. Besides, the “Bacterial Biotransformation” value is reported as “Compound NOT metabolized” in series [13]; “Compound metabolized” in series [14]; “Compound NOT metabolized” in [15]; “Compound metabolized” in series [16]; “Compound metabolized” in series [17]; “Compound NOT metabolized” in series [18]. The “Bacterial Biotransformation” value in series [19] and in series [20] was “Compound NOT metabolized” in each case.
